From ChEMBL document CHEMBL1138654, “Ring nitrogen-substituted non-steroidal estrogens: pyridine and pyrimidine analogs of the phenol in deoxyhexestrol experience resonance constraints on preferred ligand conformation” (Bioorg Med Chem Lett, 2004) come the findings set out here.

Data set [1] deals with T1, Estrogen receptor (Homo sapiens) (UniProt P03372).
T1 sequence (whole entry): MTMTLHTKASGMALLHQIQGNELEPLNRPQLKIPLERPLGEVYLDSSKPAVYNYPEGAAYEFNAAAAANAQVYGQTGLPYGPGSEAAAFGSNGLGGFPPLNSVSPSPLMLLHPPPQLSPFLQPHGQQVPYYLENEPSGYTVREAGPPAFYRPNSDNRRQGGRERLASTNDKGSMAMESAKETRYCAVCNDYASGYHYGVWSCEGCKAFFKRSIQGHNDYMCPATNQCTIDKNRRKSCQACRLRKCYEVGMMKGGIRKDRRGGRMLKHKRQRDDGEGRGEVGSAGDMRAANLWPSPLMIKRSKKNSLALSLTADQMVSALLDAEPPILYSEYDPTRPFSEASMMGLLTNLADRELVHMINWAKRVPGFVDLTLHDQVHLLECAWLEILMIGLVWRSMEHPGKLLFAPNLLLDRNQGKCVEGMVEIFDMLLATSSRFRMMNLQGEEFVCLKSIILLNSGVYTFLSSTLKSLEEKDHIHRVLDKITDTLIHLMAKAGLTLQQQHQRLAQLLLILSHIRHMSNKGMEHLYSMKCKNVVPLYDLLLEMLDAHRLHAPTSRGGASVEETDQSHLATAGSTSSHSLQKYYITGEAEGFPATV
Briefly: Inhibition of [3H]estradiol binding to human estrogen receptor alpha.

In data set [2] the target is Estrogen receptor beta (Homo sapiens) (UniProt Q92731). Briefly: Inhibition of [3H]estradiol binding to human estrogen receptor beta.
Data set [3] is described as follows: pKa was determined. Type of data set: physicochemical.

Sequence of Estrogen receptor beta (Homo sapiens) (Q92731 whole entry): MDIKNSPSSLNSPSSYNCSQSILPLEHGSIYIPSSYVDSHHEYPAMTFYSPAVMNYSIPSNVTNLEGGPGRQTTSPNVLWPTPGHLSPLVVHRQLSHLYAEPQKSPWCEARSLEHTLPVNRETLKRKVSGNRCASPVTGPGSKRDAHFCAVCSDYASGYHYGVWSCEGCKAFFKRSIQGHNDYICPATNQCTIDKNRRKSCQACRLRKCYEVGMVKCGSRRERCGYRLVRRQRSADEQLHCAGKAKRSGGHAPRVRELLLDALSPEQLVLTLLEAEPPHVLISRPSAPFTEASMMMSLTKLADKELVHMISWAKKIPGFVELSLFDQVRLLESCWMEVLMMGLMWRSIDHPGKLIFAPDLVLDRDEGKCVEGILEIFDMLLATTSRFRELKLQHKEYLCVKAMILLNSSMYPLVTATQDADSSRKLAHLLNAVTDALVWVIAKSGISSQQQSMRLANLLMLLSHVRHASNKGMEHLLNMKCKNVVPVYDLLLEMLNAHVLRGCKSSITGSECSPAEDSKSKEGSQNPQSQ

On to `CC(c1ccc(O)cc1)C(C)c1ccc(O)cc1` (stereo not drawn), for which the relative binding affinity (RBA) is 2.2 in data set [1] and 40 in data set [2].

Turning to `CCC(c1ccccc1)N(CC)c1ncc(O)cn1` (stereo not drawn), in data set [3], the pKa came to 3.9.
